Laboratory results: patent US8883745B2, “C—glycolipids with enhanced Th-1 profile” (New York University, priority 2006, dated 2014)

Legend:
[1] = system: IFN-γ; experiment: IFN-γ levels in sera upon i.v. glycolipid administration to BALB/c mice (ELISA); format: in vivo; design: IFN-γ levels, test 1 / IFN-γ levels, test 2 / IFN-γ levels, average / IFN-γ levels, Total: unit not given here; conditions: for IFN-γ/IL-4 (BALB/c): ratio calculated from Tables 1-6; for IFN-γ/IL-4 (BALB/c) / IFN-γ levels, average / IFN-γ levels, test 1 / IFN-γ levels, test 2 / IFN-γ levels, Total: BALB/c; for IFN-γ levels, average / IFN-γ levels, test 1 / IFN-γ levels, test 2 / IFN-γ levels, Total: serum; for IFN-γ levels, Total: total over hours 0-72; for effect: higher/extended IFN-γ and IL-12 with much lower IL-4 compared to α-GalCer (KRN): C57BL/6 and BALB/c mice, 1 μg i.v.
Method: (§1) Five- to six-week-old female C57BL/6 mice and BALB/c mice were purchased from Taconic. Each glycolipid was stored at 1 mg/ml in 100% DMSO. Mice were injected intravenously with 1 μg of each glyocolipid diluted in 200 μL sterile phosphate buffered saline (PBS). At indicated time points, sera were collected from each animal, and concentrations of IFN-γ, IL-4, and IL-12 in the sera were evaluated by enzyme-linked immunosorbent assay (ELISA). Serum concentrations of IFN-γ, IL-4, and IL-12 were evaluated using an ELISA kit (eBioscience, San Diego, Calif.). Briefly, 96 well flat-bottom ELISA plates (NUNC) were coated with capture antibody according to the manufacture's recommendation and incubated overnight at 4° C. The plates were washed with PBS+0.05% Tween 20 (PBS-T), then incubated with manufacturer provided blocking solution for 1 hr at room temperature to block non-specific binding sites. After washing with PBS-T, sera diluted 1:10 was added to the wells and incubated for 2 hrs at room temperature. Plates were then incubated at room temperature for 1 hr with biotintylated detection antibody, washed, incubated with avidin conjugated to horse radish peroxidase (HRP) for 30 min at room temperature, washed, and finally incubated with tetramethylbenzidine substrate solution in the dark for 10 minutes at room temperature. The antibodies, avidin-HRP, and substrate solution were all diluted according to the manufacture's recommendation. Reactions were stopped with 2.0N sulfuric acid and the cytokine concentration in each well was determined by comparing the absorbance at 450 nm in each well to known standards. The levels of Th1- and Th2-type cytokines were determined in two different genetic backgrounds, i.e., in C57BL/6 mice and BALB/c mice. The following compounds were administered: A=compound (A-1 trans-conformer), B=compound (A-2), C=compound (A-3), D=compound (A-4), E=compound (A-5), Z=control (PBS alone), CRONY=α-C-GalCer, KRN=α-GalCer, GCK109 (A-1 trans-conformer), GCK151 (A-1 cis-conformer), GCK152 (A-7). The levels of cytokines were measured at 0, 2, 6, 12, 24, 48, and 72 hours after the compound administration. The levels of Th1-type cytokines IFN-γ and IL-12 are summarized in FIGS. 2A-C and 3A-C, respectively. Table 7 provides IFN-γ/IL-4 and IL-12/IL-4 ratios for various compounds, which can be used as indicators of their ability to selectively stimulate Th1-type immune responses.

[2] = system: IL-12; experiment: IL-12 levels in sera upon i.v. glycolipid administration to BALB/c mice (ELISA); format: in vivo; design: IL-12 levels, test 1 / IL-12 levels, test 2 / IL-12 levels, average / IL-12 levels, Total: unit not given here; conditions: for IL-12/IL-4 (BALB/c): ratio calculated from Tables 1-6; for IL-12 levels, average / IL-12 levels, test 1 / IL-12 levels, test 2 / IL-12 levels, Total: serum; for IL-12 levels, Total: total over hours 0-72
Method: as §1

Structure (SMILES): CCCCCCCCCCCCCCCCCC/C=C/CCCCCCCCC(=O)N[C@@H](/C=C/[C@H]1O[C@H](CO)[C@H](O)[C@H](O)[C@H]1O)[C@H](O)[C@H](O)CCCCCCCCCCCCCC [A-1]
- IFN-γ/IL-4 (BALB/c) [1]: 37
- IFN-γ levels, average ([1]; hour 0): 27
- IFN-γ levels, test 1 ([1]; hour 0): 27
- IFN-γ levels, test 2 ([1]; hour 0): 27
- IFN-γ levels, average ([1]; hour 2): 303
- IFN-γ levels, test 1 ([1]; hour 2): 373
- IFN-γ levels, test 2 ([1]; hour 2): 233
- IFN-γ levels, average ([1]; hour 6): 3990.5
- IFN-γ levels, test 1 ([1]; hour 6): 2814
- IFN-γ levels, test 2 ([1]; hour 6): 5167
- IFN-γ levels, average ([1]; hour 12): 5514
- IFN-γ levels, test 1 ([1]; hour 12): 4881
- IFN-γ levels, test 2 ([1]; hour 12): 6147
- IFN-γ levels, average ([1]; hour 24): 15250
- IFN-γ levels, test 1 ([1]; hour 24): 16100
- IFN-γ levels, test 2 ([1]; hour 24): 14400
- IFN-γ levels, average ([1]; hour 48): 484.5
- IFN-γ levels, test 1 ([1]; hour 48): 441
- IFN-γ levels, test 2 ([1]; hour 48): 528
- IFN-γ levels, average ([1]; hour 72): 62.5
- IFN-γ levels, test 1 ([1]; hour 72): 62
- IFN-γ levels, test 2 ([1]; hour 72): 63
- IFN-γ levels, Total [1]: 25633
- effect: higher/extended IFN-γ and IL-12 with much lower IL-4 compared to α-GalCer (KRN) [1]: particularly pronounced
- IL-12/IL-4 (BALB/c) [2]: 21
- IL-12 levels, average ([2]; hour 0): 5
- IL-12 levels, test 1 ([2]; hour 0): 5
- IL-12 levels, test 2 ([2]; hour 0): 5
- IL-12 levels, average ([2]; hour 2): 119.5
- IL-12 levels, test 1 ([2]; hour 2): 0
- IL-12 levels, test 2 ([2]; hour 2): 239
- IL-12 levels, average ([2]; hour 6): 6981
- IL-12 levels, test 1 ([2]; hour 6): 7064
- IL-12 levels, test 2 ([2]; hour 6): 6898
- IL-12 levels, average ([2]; hour 12): 7001
- IL-12 levels, test 1 ([2]; hour 12): 7513
- IL-12 levels, test 2 ([2]; hour 12): 6489
- IL-12 levels, average ([2]; hour 24): 306
- IL-12 levels, test 1 ([2]; hour 24): 299
- IL-12 levels, test 2 ([2]; hour 24): 313
- IL-12 levels, average ([2]; hour 48): 0
- IL-12 levels, test 1 ([2]; hour 48): 0
- IL-12 levels, test 2 ([2]; hour 48): 0
- IL-12 levels, average ([2]; hour 72): 48.5
- IL-12 levels, test 1 ([2]; hour 72): 0
- IL-12 levels, test 2 ([2]; hour 72): 97
- IL-12 levels, Total [2]: 14462

Structure (SMILES): CCCCCCCCCCCCCCCCCCCCCCCCCCCCC(=O)N[C@@H](/C=C/[C@H]1O[C@H](CO)[C@H](O)[C@H](O)[C@H]1O)[C@H](O)[C@H](O)CCCCCCCCCCCCCC [A-2, (3S,4S,5R)-1-C-(α-D-galactopyranosyl)-3-(N-nonacosanoylamino)-4,5-nonadec-(1,2-E)-enediol]
- IFN-γ/IL-4 (BALB/c) [1]: 43
- IFN-γ levels, average ([1]; hour 0): 27
- IFN-γ levels, test 1 ([1]; hour 0): 27
- IFN-γ levels, test 2 ([1]; hour 0): 27
- IFN-γ levels, average ([1]; hour 2): 234
- IFN-γ levels, test 1 ([1]; hour 2): 197
- IFN-γ levels, test 2 ([1]; hour 2): 271
- IFN-γ levels, average ([1]; hour 6): 4185.5
- IFN-γ levels, test 1 ([1]; hour 6): 3723
- IFN-γ levels, test 2 ([1]; hour 6): 4648
- IFN-γ levels, average ([1]; hour 12): 6418.5
- IFN-γ levels, test 1 ([1]; hour 12): 7529
- IFN-γ levels, test 2 ([1]; hour 12): 5308
- IFN-γ levels, average ([1]; hour 24): 15500
- IFN-γ levels, test 1 ([1]; hour 24): 16500
- IFN-γ levels, test 2 ([1]; hour 24): 14500
- IFN-γ levels, average ([1]; hour 48): 325.5
- IFN-γ levels, test 1 ([1]; hour 48): 319
- IFN-γ levels, test 2 ([1]; hour 48): 332
- IFN-γ levels, average ([1]; hour 72): 62.5
- IFN-γ levels, test 1 ([1]; hour 72): 59
- IFN-γ levels, test 2 ([1]; hour 72): 66
- IFN-γ levels, Total [1]: 26755
- effect: higher/extended IFN-γ and IL-12 with much lower IL-4 compared to α-GalCer (KRN) [1]: particularly pronounced
- IL-12/IL-4 (BALB/c) [2]: 30
- IL-12 levels, average ([2]; hour 0): 5
- IL-12 levels, test 1 ([2]; hour 0): 5
- IL-12 levels, test 2 ([2]; hour 0): 5
- IL-12 levels, average ([2]; hour 2): 74
- IL-12 levels, test 1 ([2]; hour 2): 141
- IL-12 levels, test 2 ([2]; hour 2): 7
- IL-12 levels, average ([2]; hour 6): 7251.5
- IL-12 levels, test 1 ([2]; hour 6): 7080
- IL-12 levels, test 2 ([2]; hour 6): 7423
- IL-12 levels, average ([2]; hour 12): 10800
- IL-12 levels, test 1 ([2]; hour 12): 11600
- IL-12 levels, test 2 ([2]; hour 12): 10000
- IL-12 levels, average ([2]; hour 24): 442.5
- IL-12 levels, test 1 ([2]; hour 24): 454
- IL-12 levels, test 2 ([2]; hour 24): 431
- IL-12 levels, average ([2]; hour 48): 66.5
- IL-12 levels, test 1 ([2]; hour 48): 0
- IL-12 levels, test 2 ([2]; hour 48): 133
- IL-12 levels, average ([2]; hour 72): 222.5
- IL-12 levels, test 1 ([2]; hour 72): 3
- IL-12 levels, test 2 ([2]; hour 72): 442
- IL-12 levels, Total [2]: 18864
